Literature values in US20050042289A1, “Tablets and methods for modified release of hydrophylic and other active agents” (Yamanouchi Pharma Technologies, Inc., priority 2003, published 2005).
Structures can show the parent of a compound that is named as a salt. Where two headings read alike, the source gives them in different places.

Settings: in water at 25° C., hemihydrate

water solubility (listed as Cevimeline hydrochloride): 766 mg/mL | water solubility (listed as methylspiro hydrochloride salt): ~800 mg/mL | water solubility (hydrochloride): about 1,400 mg/ml
Structure (SMILES): CC1OC2(CS1)CN1CCC2CC1 (racemic) [SNI-2011, (+/−)-cis-2-methylspiro [1,3-oxathiolane-5,3′-quinuclidine] hydrochloride, hemihydrate]
